Data published in patent publication US8530468B2 (Cancer Research Technology Limited, priority 2008, dated 2013).
Read-outs that look alike come from different tables or passages of the source.

What was measured:
CHK1 = target: T1, CHK1 (Homo sapiens, UniProt O14757); test: CHK1 kinase function inhibition (DELFIA assay, phosphorylation of CDC25C peptide); assay type: biochemical; conditions: CHK1 1 nM, ATP 30 μM, 30 minutes at room temperature
T1 sequence (O14757 1-476): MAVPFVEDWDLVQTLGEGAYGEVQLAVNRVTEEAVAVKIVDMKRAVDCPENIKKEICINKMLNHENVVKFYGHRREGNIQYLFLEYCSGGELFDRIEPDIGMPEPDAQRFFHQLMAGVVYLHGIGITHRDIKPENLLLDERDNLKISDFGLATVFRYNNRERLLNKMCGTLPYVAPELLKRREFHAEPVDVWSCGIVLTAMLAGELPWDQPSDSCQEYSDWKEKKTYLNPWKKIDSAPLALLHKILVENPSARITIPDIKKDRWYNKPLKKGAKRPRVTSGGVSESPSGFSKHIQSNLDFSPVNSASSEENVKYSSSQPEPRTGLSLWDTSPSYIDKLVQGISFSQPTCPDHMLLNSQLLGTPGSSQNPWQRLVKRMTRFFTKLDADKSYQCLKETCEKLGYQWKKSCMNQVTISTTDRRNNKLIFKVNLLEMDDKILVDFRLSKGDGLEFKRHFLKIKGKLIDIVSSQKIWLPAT

[1] = tested on: HT29 colon carcinoma cells; test: Cytotoxicity assay (SRB); assay type: cell-based; conditions: Homo sapiens, read-out: SRB IC50 (concentration required to inhibit growth by 50%)
HT29 cells = test: Mitosis inhibition assay (MIA), checkpoint abrogation after etoposide; assay type: cell-based; conditions: Homo sapiens, HT-29, etoposide 50 μM 1 hour, then compound with nocodazole 100 ng/mL, 21 hours, read-out: MIA IC50 (concentration required to allow 50% of cells to enter mitosis)

Structure (SMILES) | IC50 (CHK1) | IC50 ([1]; HT-29, 96 h) | IC50 (HT29 cells) | IC50 ([1]; HT-29, 96 hours)
Cn1cnc2cnc(Nc3cnc(C#N)c(OCC4CCNCC4)n3)cc21 | ≤ 1 µM |  |  | 
N#Cc1ncc(Nc2cc3ccccc3cn2)nc1OCC1CCNCC1 [AA-003] |  | ≤ 10 µM |  | 
Clc1cccc2cc(Nc3cncc(OCC4CCNCC4)n3)ncc12 [AA-005] | 1 to 10 µM |  |  | 
N#Cc1ncc(Nc2cc3cccc(Cl)c3cn2)nc1OCC1CCNCC1 [AA-006] |  | ≤ 10 µM |  | 
N#Cc1ncc(Nc2cc3cccc(Cl)c3cn2)nc1OC1CCCNC1 (centres unmarked) [AA-007] |  | ≤ 10 µM | ≤ 10 µM | 
N#Cc1ncc(Nc2cc3cccc(Cl)c3cn2)nc1O[C@@H]1CCNC1 [AA-008, (R)-5-(8-Chloroisoquinolin-3-ylamino)-3-(pyrrolidin-3-yloxy)pyrazine-2-carbonitrile] | ≤ 1 µM |  | ≤ 10 µM | ≤ 10 µM
CN1CCCC(COc2nc(Nc3cc4cccc(Cl)c4cn3)cnc2C#N)C1 (centres unmarked) [AA-009] | ≤ 1 µM |  |  | 
CC(CN(C)C)Oc1nc(Nc2cc3cccc(Cl)c3cn2)cnc1C#N (centres unmarked) [AA-010] |  | ≤ 10 µM | ≤ 10 µM | 
COc1cc(OC)c2cnc(Nc3cnc(C#N)cn3)cc2c1 [AA-011, 5-(6,8-Dimethoxyisoquinolin-3-ylamino)pyrazine-2-carbonitrile] | 1 to 10 µM |  |  | 
CN1CCC(COc2nc(Nc3cc4cccc(Cl)c4cn3)cnc2C#N)CC1 [AA-014] | ≤ 1 µM |  | ≤ 10 µM | ≤ 10 µM
N#Cc1ncc(Nc2cc3ccccc3cn2)nc1OC1CCCNC1 (centres unmarked) [AA-015] |  | ≤ 10 µM |  | 
N#Cc1cnc(Nc2cc3cccc(Br)c3cn2)cn1 [AA-017, 5-(8-Bromoisoquinolin-3-ylamino)pyrazine-2-carbonitrile] | 1 to 10 µM |  |  | 
N#Cc1cnc(Nc2cc3cc(Cl)ccc3cn2)cn1 [AA-018, 5-(6-Chloroisoquinolin-3-ylamino)pyrazine-2-carbonitrile] | 1 to 10 µM |  |  | 
N#Cc1cnc(Nc2cc3cccc(-c4cc[nH]n4)c3cn2)cn1 [AA-019, 5-(8-(1H-pyrazol-3-yl)isoquinolin-3-ylamino)pyrazine-2-carbonitrile] | 1 to 10 µM |  |  | 
N#Cc1cnc(Nc2cc3cccc(NCCN4CCOCC4)c3cn2)cn1 [AA-020, 5-(8-(2-morpholinoethylamino)isoquinolin-3-ylamino)pyrazine-2-carbonitrile] | ≤ 1 µM |  | ≤ 10 µM | ≤ 10 µM
COc1cccc2cc(Nc3cnc(C#N)cn3)ncc12 [AA-021, 5-(8-methoxyisoquinolin-3-ylamino)pyrazine-2-carbonitrile] | 1 to 10 µM |  |  | 
C[C@H](CN(C)C)Oc1nc(Nc2cc3ccccc3cn2)cnc1C#N [AA-022] |  | ≤ 10 µM | ≤ 10 µM | 
C[C@H](CN(C)C)Oc1nc(Nc2cc3cccc(Cl)c3cn2)cnc1C#N [AA-023] |  | ≤ 10 µM | ≤ 10 µM | 
Cc1cccc2cc(Nc3cnc(C#N)cn3)ncc12 [AA-024] | 1 to 10 µM |  |  | 
Cc1cccc2cc(Nc3cnc(C#N)c(OC(C)CN(C)C)n3)ncc12 (centres unmarked) [AA-025] | ≤ 1 µM |  | ≤ 10 µM | ≤ 10 µM

Structure (SMILES) | IC50 (CHK1) | IC50 ([1]; HT-29, 96 h) | IC50 (HT29 cells) | IC50 ([1]; HT-29, 96 hours)
CC(CN(C)C)Oc1nc(Nc2cc3cccc(Br)c3cn2)cnc1C#N (centres unmarked) [AA-026] | ≤ 1 µM |  | ≤ 10 µM | ≤ 10 µM
N#Cc1cnc(Nc2cc3cccc(NCCCN4CCOCC4)c3cn2)cn1 [AA-027] | ≤ 1 µM |  | ≤ 10 µM | ≤ 10 µM
N#Cc1ncc(Nc2cc3cccc(NCCCN4CCOCC4)c3cn2)nc1OCC1CC1 [AA-028] | ≤ 1 µM |  |  | 
N#Cc1ncc(Nc2cc3cccc(NCCN4CCOCC4)c3cn2)nc1OCC1CCOC1 (centres unmarked) [AA-029] | ≤ 1 µM |  | ≤ 10 µM | 
COc1nc(Nc2cc3cccc(NCCN4CCOCC4)c3cn2)cnc1C#N [AA-030] | ≤ 1 µM |  | ≤ 10 µM | 
N#Cc1cnc(Nc2cc3cccc(NCCO)c3cn2)cn1 [AA-031, 5-(8-(2-Hydroxyethylamino)isoquinolin-3-ylamino)pyrazine-2-carbonitrile] | ≤ 1 µM |  | ≤ 10 µM | ≤ 10 µM
CC(CN(C)C)Oc1nc(Nc2cc3cccc(NCCO)c3cn2)cnc1C#N (centres unmarked) [AA-032] | ≤ 1 µM |  | ≤ 10 µM | ≤ 10 µM
N#Cc1cnc(Nc2cc3cccc(NCCCO)c3cn2)cn1 [AA-033] | ≤ 1 µM |  | ≤ 10 µM | ≤ 10 µM
COCCCNc1cccc2cc(Nc3cnc(C#N)cn3)ncc12 [AA-035] | ≤ 1 µM |  | ≤ 10 µM | 
COCCNc1cccc2cc(Nc3cnc(C#N)cn3)ncc12 [AA-036] | ≤ 1 µM |  | ≤ 10 µM | 
COCCNc1cccc2cc(Nc3cnc(C#N)c(O[C@H](C)CN(C)C)n3)ncc12 [AA-039] |  |  | ≤ 10 µM | ≤ 10 µM
COc1nc(Nc2cc3cccc(NCCO)c3cn2)cnc1C#N [AA-042] | ≤ 1 µM |  |  | 
N#Cc1ncc(Nc2cc3cccc(NCCO)c3cn2)nc1OCC1CC1 [AA-045] | ≤ 1 µM |  |  | 
CC(C)CCOc1nc(Nc2cc3cccc(NCCO)c3cn2)cnc1C#N [AA-046] | 1 to 10 µM |  |  | 
N#Cc1ncc(Nc2cc3cccc(NCCO)c3cn2)nc1OCC1CCOC1 (centres unmarked) [AA-047] | 1 to 10 µM |  |  | 
COc1nc(Nc2cc3ccccc3cn2)cnc1C#N [AA-048] | ≤ 1 µM |  |  | 
CC(=O)Nc1cccc2cc(Nc3cnc(C#N)cn3)ncc12 [AA-062, N-(3-(5-Cyanopyrazin-2-ylamino)isoquinolin-8-yl)acetamide] | ≤ 1 µM |  |  | 
COCCC(=O)Nc1cccc2cc(Nc3cnc(C#N)cn3)ncc12 [AA-063, N-(3-(5-Cyanopyrazin-2-ylamino)isoquinolin-8-yl)-3-methoxypropanamide] | 1 to 10 µM |  |  | 
CC(=O)Nc1cccc2cc(Nc3cnc(C#N)c(O[C@H](C)CN(C)C)n3)ncc12 [AA-064] | ≤ 1 µM |  |  | 
COCCNC(=O)c1cccc2cc(Nc3cnc(C#N)c(OC(C)CN(C)C)n3)ncc12 (centres unmarked) [AA-066] | 1 to 10 µM |  | ≤ 10 µM | 

Structure (SMILES) | IC50 (CHK1) | IC50 ([1]; HT-29, 96 h) | IC50 (HT29 cells) | IC50 ([1]; HT-29, 96 hours)
CCOC(=O)COc1nc(Nc2cc3ccccc3cn2)cnc1C#N [AA-068, Ethyl 2-(3-cyano-6-(isoquinolin-3-ylamino)pyrazin-2-yloxy)acetate] | 1 to 10 µM |  |  | 
N#Cc1ncc(Nc2cc3ccccc3cn2)nc1OCC(=O)O [AA-069, 2-(3-Cyano-6-(isoquinolin-3-ylamino)pyrazin-2-yloxy)acetic acid] | 1 to 10 µM |  |  | 
N#Cc1cnc(Nc2cc3c(Br)ccc(Cl)c3cn2)cn1 [AA-070, 5-(5-Bromo-8-chloroisoquinolin-3-ylamino)pyrazine-2-carbonitrile] | 1 to 10 µM |  |  | 
C[C@H](C[N+](C)(C)[O-])Oc1nc(Nc2cc3cccc(Cl)c3cn2)cnc1C#N [AA-071, (R)-2-(6-(8-Chloroisoquinolin-3-ylamino)-3-cyanopyrazin-2-yloxy)-N,N-dimethylpropan-1-amine oxide] | ≤ 1 µM |  | ≤ 10 µM | 
N#Cc1ncc(Nc2cc3cccc(F)c3cn2)nc1O[C@@H]1CCNC1 [AA-072] | ≤ 1 µM |  | ≤ 10 µM | 
N#Cc1cnc(Nc2cc3[nH]c(C4CC4)nc3cn2)cn1 [BB-001, 5-(2-Cyclopropyl-1H-imidazo[4,5-c]pyridin-6-ylamino)pyrazine-2-carbonitrile] | 1 to 10 µM |  |  | 
N#Cc1cnc(Nc2cc3[nH]c(-c4ccc(N5CCNCC5)cc4)nc3cn2)cn1 [BB-006] | 1 to 10 µM |  |  | 
N#Cc1cnc(Nc2cc3[nH]c(CCC4CCNCC4)nc3cn2)cn1 [BB-011] | ≤ 1 µM |  |  | 
c1nc2cnc(Nc3cncc(OCC4CCNCC4)n3)cc2[nH]1 [BB-013] | 1 to 10 µM |  |  | 
N#Cc1cnc(Nc2cc3c(cn2)ncn3CCN)cn1 [BB-019, 5-(1-(2-Aminoethyl)-1H-imidazo[4,5-c]pyridin-6-ylamino)pyrazine-2-carbonitrile] | 1 to 10 µM |  |  | 
N#Cc1cnc(Nc2cc3c(cn2)ncn3CC2CCCNC2)cn1 (centres unmarked) [BB-020, 5-(1-(Piperidin-3-ylmethyl)-1H-imidazo[4,5-c]pyridin-6-ylamino)pyrazine-2-carbonitrile] | 1 to 10 µM |  |  | 
N#Cc1cnc(Nc2cc3c(cn2)ncn3[C@H]2CCCNC2)cn1 [BB-021, (S)-5-(1-(Piperidin-3-yl)-1H-imidazo[4,5-c]pyridin-6-ylamino)pyrazine-2-carbonitrile] | ≤ 1 µM |  |  | 
N#Cc1cnc(Nc2cc3c(cn2)ncn3C2CCNCC2)cn1 [BB-022, 5-(1-(Piperidin-4-yl)-1H-imidazo[4,5-c]pyridin-6-ylamino)pyrazine-2-carbonitrile] | 1 to 10 µM |  |  | 
N#Cc1cnc(Nc2cc3c(cn2)ncn3[C@@H]2CCCNC2)cn1 [BB-023, (R)-5-(1-(Piperidin-3-yl)-1H-imidazo[4,5-c]pyridin-6-ylamino)pyrazine-2-carbonitrile] | 1 to 10 µM |  |  | 
CC(CN(C)C)Oc1nc(Nc2cc3[nH]cnc3cn2)cnc1C#N (centres unmarked) [BB-024, 5-(3H-Imidazo[4,5-c]pyridin-6-ylamino)-3-(1-(dimethylamino)propan-2-yloxy)pyrazine-2-carbonitrile] | ≤ 1 µM |  |  | 
CN1CCCC(Oc2nc(Nc3cc4[nH]cnc4cn3)cnc2C#N)C1 (centres unmarked) [BB-025] | ≤ 1 µM |  |  | 
CN1CCCC(COc2nc(Nc3cc4[nH]cnc4cn3)cnc2C#N)C1 (centres unmarked) [BB-026] | ≤ 1 µM |  |  | 
N#Cc1ncc(Nc2cc3[nH]cnc3cn2)nc1O[C@@H]1CCNC1 [BB-027] | ≤ 1 µM |  |  | 
N#Cc1cnc(Nc2cc3cc[nH]c3cn2)cn1 [CC-001, 5-(1H-Pyrrolo[2,3-c]pyridin-5-ylamino)pyrazine-2-carbonitrile] | 1 to 10 µM |  |  | 
